Molecular target: farnesyl transferase (Homo sapiens, UniProt P49354+P49356)
Experiment: Farnesyl transferase inhibition, [3H]-farnesylation of biotinylated K-ras C-terminal peptide (SPA assay)
Assay type: biochemical
Settings: In vitro inhibitory activity (K-Ras) IC50, K-Ras substrate; 60 min at 37° C.; mean of two IC50 values
Protocol: The farnesyl transferase activity was measured by the amount farnesylated of K-ras substrate or of substrate derived from the peptide corresponding to its C-terminal part, the farnesyl group being introduced by farnesyl pyrophosphate (FPP).
It was then brought into contact with PVT-streptavidin (Amersham)® beads and was quantified by proximity scintillation (SPA assay) between the tritium and the PVT beads, by virtue of the streptavidin/biotin interaction.
Experimentally, farnesyl transferase purified according to the appended protocol was diluted, for this assay, to a concentration such that a consumption of substrates of less than 30% was obtained.
The reaction, carried out in Optiplates 96° microtitration plates, was initiated by the enzyme and lasted sixty minutes at 37° C. It was stopped by addition of 150 μl of mixture of a blocking buffer at pH 4 composed of 0.2M H3 PO4, 1.5 mM MgCl2, 0.5% (w/v) BSA, 0.05% (w/v) sodium azide containing 200 μg of PVT-streptavidin beads.
After slow agitation for thirty minutes (in order to remove the chemiluminescence), the plates were read as [^3 H]CPM in a Top Count® (Packard) scintillation counter for microplates, where they were converted into [^3 H]DPM from a range of coloured agent attenuating the scintillation (quenching).
The percentages of inhibition were calculated with respect to an inhibitor-free control after subtraction from all the values of that of a blank which only contained the substrates and the buffer.
The IC50 values were calculated or measured, from the inhibitions obtained at nine different concentrations, with Enzfitter® or Grafit® software. The IC50 values which appear in the results are the mean of measurements and calculations of two IC50 values.

Structure (SMILES)	IC50 [µM]
COc1ccccc1CC(=O)N1C[C@H]2[C@@]3(c4ccc(F)cc4)CC[C@H](c4ccccc43)[C@@]2(C(=O)O)C1 (relative stereo) [Example 8, (3aRS,4SR,9SR,9aRS)-4,9-ethano-9-(4-fluorophenyl)-2-[(2-methoxyphenyl)acetyl]-2,3,3a,4,9,9a-hexahydro-1H-benzo[f]isoindole-3a-carboxylic Acid]	0.1

Same assay, conditions: K-Ras substrate; 60 min at 37° C.; mean of two IC50 values; read-out: In vitro inhibitory activity (K-Ras) IC50

Structure (SMILES)	IC50 [µM]
C=C(C(=O)N1C[C@H]2[C@@]3(c4ccc(C)cc4)CC[C@H](c4ccccc43)[C@@]2(C(=O)NNc2ccccc2)C1)c1ccccc1OC (relative stereo) [Example 23, (3aRS,4SR,9SR,9aRS)-4,9-ethano-2-[2-(2-methoxyphenyl)propenoyl]-9-(4-methylphenyl)-2,3,3a,4,9,9a-hexahydro-1H-benzo[f]isoindole-3a-N'-phenylcarbohydrazide]	0.277
C=C(C(=O)N1C[C@@H]2[C@]3(c4ccc(C(F)(F)F)cc4)CC[C@@H](c4ccccc43)[C@]2(C(=O)NNc2ccccc2)C1)c1ccccc1OC (relative stereo) [Example 44, (3aRS,4SR,9SR,9aRS)-4,9-ethano-2-[2-(2-methoxyphenyl)propenoyl]-9-[4-(trifluoromethyl)phenyl]-2,3,3a,4,9,9a-hexahydro-1H-benzo[f]isoindole-3a-N'-phenylcarbohydrazide]	0.369
C=C(C(=O)N1C[C@@H]2[C@]3(c4ccc(OC(F)(F)F)cc4)CC[C@@H](c4ccccc43)[C@]2(C(=O)O)C1)c1ccccc1OC (racemic) [Example 82, (3aRS,4SR,9SR,9aRS)-4,9-ethano-2-[2-(2-methoxyphenyl)propenoyl]-9-(4-trifluoromethoxyphenyl)-2,3,3a,4,9,9a-hexahydro-1H-benzo[f]isoindole-3a-carboxylic Acid]	0.097
C=C(C(=O)N1C[C@H]2[C@@]3(c4ccc(C)cc4)CC[C@H](c4ccccc43)[C@@]2(C(=O)NNc2ccc(OC)cc2)C1)c1ccccc1OC (relative stereo) [Example 27, (3aRS,4SR,9SR,9aRS)-4,9-ethano-2-[2-(2-methoxyphenyl)propenoyl]-9-(4-methylphenyl)-2,3,3a,4,9,9a-hexahydro-1H-benzo[f]isoindole-3a-N'-(4-methoxyphenyl)carbohydrazide]	0.009
C=C(C(=O)N1C[C@@H]2[C@]3(c4ccc(C)cc4)CC[C@@H](c4ccccc43)[C@]2(C(N)=O)C1)c1ccccc1OC (racemic) [Example 15, (3aRS,4SR,9SR,9aRS)-3a-carbamoyl-4,9-ethano-2-[2-(2-methoxyphenyl)propenoyl]-9-(4-methylphenyl)-2,3,3a,4,9,9a-hexahydro-1H-benzo[f]isoindole]	0.17
C=C(C(=O)N1C[C@H]2[C@@]3(c4ccc(C)cc4)CC[C@H](c4ccccc43)[C@@]2(C(=O)O)C1)c1ccccc1OC (single isomer, unassigned) [Example 4, laevorotatory enantiomer of (3aRS,4SR,9RS,9aRS)-4,9-ethano-2-[2-(2-methoxyphenyl)propenoyl]-9-(4-methylphenyl)-2,3,3a,4,9,9a-hexahydro-1H-benzo[f]isoindole-3a-carboxylic acid]	1.8
C=C(C(=O)N1C[C@@H]2[C@]3(c4cccc(Br)c4)CC[C@@H](c4ccccc43)[C@]2(C(=O)O)C1)c1ccccc1OC (racemic) [Example 84, (3aRS,4SR,9SR,9aRS)-9-(3-bromophenyl)-4,9-ethano-2-[2-(2-methoxyphenyl)propenoyl]-2,3,3a,4,9,9a-hexahydro-1H-benzo[f]isoindole-3a-carboxylic Acid]	0.008
COc1ccc([C@]23CC[C@H](c4ccccc42)[C@@]2(C(=O)O)CN(C(=O)Cc4ccccc4OC)C[C@@H]32)cc1 (relative stereo) [Example 6, (3aRS,4SR,9SR,9aRS)-4,9-ethano-9-(4-methoxyphenyl)-2-[(2-methoxyphenyl)acetyl]-2,3,3a,4,9,9a-hexahydro-1H-benzo[f]isoindole-3a-carboxylic Acid]	0.0575
C=C(C(=O)N1C[C@@H]2[C@]3(c4ccc5c(c4)CCO5)CC[C@@H](c4ccccc43)[C@]2(C(=O)OC)C1)c1ccccc1OC (racemic) [Example 61, methyl (3aRS,4SR,9SR,9aRS)-9-(2,3-dihydrobenzofuran-5-yl)-4,9-ethano-2-[2-(2-methoxyphenyl)propenoyl]-2,3,3a,4,9,9a-hexahydro-1H-benzo[f]isoindole-3a-carboxylate]	0.178
C=C(C(=O)N1C[C@@H]2[C@]3(c4ccc(C(F)(F)F)cc4)CC[C@@H](c4ccccc43)[C@]2(C(=O)O)C1)c1ccccc1OC (single isomer, unassigned) [Example 41, dextrorotatory enantiomer of (3aRS,4SR,9SR,9aRS)-4,9-ethano-2-[2-(2-methoxyphenyl)propenoyl]-9-[4-(trifluoromethyl)phenyl]-2,3,3a,4,9,9a-hexahydro-1H-benzo[f]isoindole-3a-carboxylic Acid]	0.009
C=C(C(=O)N1C[C@H]2[C@@]3(c4cccc(N(C)C)c4)CC[C@H](c4ccccc43)[C@@]2(C(=O)OC)C1)c1ccccc1OC (relative stereo) [Example 91, methyl (3aRS,4SR,9SR,9aRS)-9-(3-N,N-dimethylaminophenyl)-4,9-ethano-2-[2-(2-methoxyphenyl)propenoyl]-2,3,3a,4,9,9a-hexahydro-1H-benzo[f]isoindole-3a-carboxylate]	0.183
C=C(C(=O)N1C[C@@H]2[C@]3(c4ccc(Br)cc4)CC[C@@H](c4ccccc43)[C@]2(C(=O)OC)C1)c1ccccc1OC (racemic) [Example 49, methyl (3aRS,4SR,9SR,9aRS)-9-(4-bromophenyl)-4,9-ethano-2-[2-(2-methoxyphenyl)-propenoyl]-2,3,3a,4,9,9a-hexahydro-1H-benzo[f]isoindole-3a-carboxylate]	0.229

Now from value to molecule:

IC50 [µM]	Structure (SMILES)
0.589	COc1ccccc1CC(=O)N1C[C@@H]2[C@]3(c4ccc(C(C)C)cc4)CC[C@@H](c4ccccc43)[C@]2(C(=O)O)C1 (racemic) [Example 56, (3aRS,4SR,9SR,9aRS)-4,9-ethano-9-(4-isopropylphenyl)-2-[(2-methoxyphenyl)acetyl]-2,3,3a,4,9,9a-hexahydro-1H-benzo[f]isoindole-3a-carboxylic Acid]
0.335	C=C(C(=O)N1C[C@@H]2[C@]3(c4ccc(C)c(C)c4)CC[C@@H](c4ccccc43)[C@]2(C(=O)OC)C1)c1ccccc1OC (racemic) [Example 71, methyl (3aRS,4SR,9SR,9aRS)-9-(3,4-dimethylphenyl)-4,9-ethano-2-[2-(2-methoxyphenyl)propenoyl]-2,3,3a,4,9,9a-hexahydro-1H-benzo[f]isoindole-3a-carboxylate]
0.177	C=C(C(=O)N1C[C@@H]2[C@]3(c4ccc(C#N)cc4)CC[C@@H](c4ccccc43)[C@]2(C(=O)O)C1)c1ccccc1OC (racemic) [Example 95, (3aRS,4SR,9SR,9aRS)-9-(4-cyanophenyl)-4,9-ethano-2-[2-(2-methoxyphenyl)propenoyl]-2,3,3a,4,9,9a-hexahydro-1H-benzo[f]isoindole-3a-carboxylic Acid]
0.084	C=C(C(=O)N1C[C@H]2[C@@]3(c4ccc(C)cc4)CC[C@H](c4ccccc43)[C@@]2(C(=O)NN2CCCCC2)C1)c1ccccc1OC (relative stereo) [Example 24, (3aRS,4SR,9SR,9aRS)-4,9-ethano-2-[2-(2-methoxyphenyl)propenoyl]-9-(4-methylphenyl)-2,3,3a,4,9,9a-hexahydro-1H-benzo[f]isoindole-3a-N',N'-pentamethylenecarbohydrazide]
0.068	C=C(C(=O)N1C[C@@H]2[C@]3(c4ccc(Cl)c(Cl)c4)CC[C@@H](c4ccccc43)[C@]2(C(=O)O)C1)c1ccccc1OC (racemic) [Example 51, (3aRS,4SR,9SR,9aRS)-9-(3,4-dichlorophenyl)-4,9-ethano-2-[2-(2-methoxyphenyl)-propenoyl]-2,3,3a,4,9,9a-hexahydro-1H-benzo[f]isoindole-3a-carboxylic Acid]
0.067	C=C(C(=O)N1C[C@@H]2[C@]3(c4ccc5c(c4)OCO5)CC[C@@H](c4ccccc43)[C@]2(C(=O)O)C1)c1ccccc1OC (racemic) [Example 70, (3aRS,4SR,9SR,9aRS)-9-(1,3-benzodioxol-5-yl)-4,9-ethano-2-[2-(2-methoxyphenyl)propenoyl]-2,3,3a,4,9,9a-hexahydro-1H-benzo[f]isoindole-3a-carboxylic Acid]
0.018	C=C(C(=O)N1CC2C3(c4ccc(OC)cc4)CCC(c4ccccc43)C2(C(=O)NC(C(=O)O)c2ccccc2)C1)c1ccccc1OC (stereo not drawn) [Example 81, (RS)- and (SR)-2-{(3aRS,4SR,9SR,9aRS)-4,9-ethano-9-(4-methoxyphenyl)-2-[2-(2-methoxyphenyl)propenoyl]-2,3,3a,4,9,9a-hexahydro-1H-benzo[f]isoindole-3a-carbonylamino}phenylacetic Acids]
